{"source": "paper PMC3378994", "about": "(Bioorganic & medicinal chemistry letters, 2012)", "origin": "cited, not measured here", "biological_target": "DAT (Rattus norvegicus, UniProt P23977)", "sequence (P23977 whole entry)": "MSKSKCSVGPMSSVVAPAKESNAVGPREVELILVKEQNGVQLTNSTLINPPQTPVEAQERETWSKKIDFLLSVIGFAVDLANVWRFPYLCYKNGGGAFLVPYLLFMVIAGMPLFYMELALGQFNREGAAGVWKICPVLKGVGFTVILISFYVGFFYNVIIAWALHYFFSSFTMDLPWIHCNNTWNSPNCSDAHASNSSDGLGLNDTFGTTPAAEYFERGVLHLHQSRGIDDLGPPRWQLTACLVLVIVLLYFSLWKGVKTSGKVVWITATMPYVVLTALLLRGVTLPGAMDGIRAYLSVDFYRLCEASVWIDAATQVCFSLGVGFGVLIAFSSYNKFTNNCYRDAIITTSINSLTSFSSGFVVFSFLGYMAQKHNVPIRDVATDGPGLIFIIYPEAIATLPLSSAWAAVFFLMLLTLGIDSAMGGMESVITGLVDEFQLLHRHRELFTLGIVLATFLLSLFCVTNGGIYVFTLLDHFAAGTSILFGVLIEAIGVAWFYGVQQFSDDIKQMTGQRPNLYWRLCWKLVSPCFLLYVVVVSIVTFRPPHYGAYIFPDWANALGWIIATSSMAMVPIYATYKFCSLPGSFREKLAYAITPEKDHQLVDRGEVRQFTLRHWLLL"}
{"compound": "Cc1ccc([C@H]2C[C@@H]3CC[C@H]([C@H]2C(=O)OCC[18F])N3C/C=C/I)cc1", "note": "[[^18F]FE-PE2I]", "values": [{"measurement": "Fold lower affinity to other monoamine transporters than to DAT", "result": "more than 50 fold"}]}
